Test results: ChEMBL document CHEMBL4052759, “Discovery of DS79182026: A potent orally active hepcidin production inhibitor” (Bioorg Med Chem Lett, 2017)

How the values were obtained:
[1] = target: Serine/threonine-protein kinase 4 (Homo sapiens) (UniProt Q13043); test: Inhibition of MST1 (unknown origin) at 0.49 uM relative to control
[2] = target: Dual specificity tyrosine-phosphorylation-regulated kinase 1A (Homo sapiens) (UniProt Q13627); test: Inhibition of DYRK1a (unknown origin) at 0.49 uM relative to control
[3] = target: Protein kinase C alpha type (Homo sapiens) (UniProt P17252); test: Inhibition of PKC-alpha (unknown origin) at 0.49 uM relative to control
[4] = target: SRSF protein kinase 2 (Homo sapiens) (UniProt P78362); test: Inhibition of SRPK2 (unknown origin) at 0.49 uM relative to control
[5] = target: Ribosomal protein S6 kinase alpha-1 (Homo sapiens) (UniProt Q15418); test: Inhibition of RSK1 (unknown origin) at 0.49 uM relative to control
[6] = target: Fibroblast growth factor receptor 3 (Homo sapiens) (UniProt P22607); test: Inhibition of FGFR3 (unknown origin) at 0.49 uM relative to control
[7] = target: Casein kinase I isoform alpha (Homo sapiens) (UniProt P48729); test: Inhibition of CSNK1A1 (unknown origin) at 0.49 uM relative to control
[8] = target: MAP kinase-activated protein kinase 3 (Homo sapiens) (UniProt Q16644); test: Inhibition of MAPKAPK3 (unknown origin) at 0.49 uM relative to control
[9] = target: NT-3 growth factor receptor (Homo sapiens) (UniProt Q16288); test: Inhibition of TRKC (unknown origin) at 0.49 uM relative to control
[10] = target: Serine/threonine-protein kinase pim-2 (Homo sapiens) (UniProt Q9P1W9); test: Inhibition of PIM2 (unknown origin) at 0.49 uM relative to control
[11] = target: Cyclin-dependent kinase 1/cyclin B1 (Homo sapiens) (UniProt P06493+P14635); test: Inhibition of CDK1/Cycline B1 (unknown origin) at 0.49 uM relative to control; format: protein-complex assay
[12] = target: Tyrosine-protein kinase Tec (Homo sapiens) (UniProt P42680); test: Inhibition of TEC (unknown origin) at 0.45 uM relative to control
[13] = target: Calcium/calmodulin-dependent protein kinase type 1 (Homo sapiens) (UniProt Q14012); test: Inhibition of CaMK1a (unknown origin) at 0.45 uM relative to control
[14] = Metabolic stability in mouse liver microsomes assessed as […] by measuring parent compound remaining at 1 uM after 0.5 hrs by LC-MS/MS analysis; format: ADME; conditions: read-out: Stability
[15] = target: T1, Serine/threonine-protein kinase 3 (Homo sapiens) (UniProt Q13188); test: Inhibition of MST2 (unknown origin) at 0.45 uM relative to control
T1 sequence (whole entry): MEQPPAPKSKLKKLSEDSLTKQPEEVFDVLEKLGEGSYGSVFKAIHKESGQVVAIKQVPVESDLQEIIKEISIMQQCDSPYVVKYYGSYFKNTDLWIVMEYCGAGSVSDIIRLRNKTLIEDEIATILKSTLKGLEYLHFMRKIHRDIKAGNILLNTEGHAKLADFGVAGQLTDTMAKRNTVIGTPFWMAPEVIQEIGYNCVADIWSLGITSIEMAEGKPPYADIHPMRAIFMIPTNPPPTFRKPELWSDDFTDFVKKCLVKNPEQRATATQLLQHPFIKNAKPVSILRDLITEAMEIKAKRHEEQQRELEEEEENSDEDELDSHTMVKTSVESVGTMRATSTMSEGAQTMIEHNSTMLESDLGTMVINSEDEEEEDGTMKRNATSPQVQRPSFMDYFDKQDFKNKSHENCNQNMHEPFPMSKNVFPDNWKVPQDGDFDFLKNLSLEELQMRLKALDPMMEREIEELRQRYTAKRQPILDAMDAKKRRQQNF

[16] = target: Death-associated protein kinase 3 (Homo sapiens) (UniProt O43293); test: Inhibition of ZIPK (unknown origin) at 0.45 uM relative to control
[17] = target: Tyrosine-protein kinase SYK (Homo sapiens) (UniProt P43405); test: Inhibition of SYK (unknown origin) at 0.45 uM relative to control
[18] = target: Aurora kinase B (Homo sapiens) (UniProt Q96GD4); test: Inhibition of AurB (unknown origin) at 0.45 uM relative to control
[19] = target: Misshapen-like kinase 1 (Homo sapiens) (UniProt Q8N4C8); test: Inhibition of MINK (unknown origin) at 0.45 uM relative to control
[20] = target: Proto-oncogene tyrosine-protein kinase receptor Ret (Homo sapiens) (UniProt P07949); test: Inhibition of RET (unknown origin) at 0.45 uM relative to control
[21] = target: Mitogen-activated protein kinase 13 (Homo sapiens) (UniProt O15264); test: Inhibition of p38-delta (unknown origin) at 0.45 uM relative to control
[22] = target: Cyclin-dependent kinase 5/CDK5 activator 1 (Homo sapiens) (UniProt Q00535+Q15078); test: Inhibition of CDK5/p25 (unknown origin) at 0.45 uM relative to control; format: protein-complex assay
[23] = target: RAC-beta serine/threonine-protein kinase (Homo sapiens) (UniProt P31751); test: Inhibition of AKT2 (unknown origin) at 0.45 uM relative to control
[24] = target: Protein kinase C beta (Homo sapiens) (UniProt P05771); test: Inhibition of PKC-beta1 (unknown origin) at 0.45 uM relative to control
[25] = system: Hepatocyte growth factor receptor (Homo sapiens), P08581 [M1250T]; test: Inhibition of MET M1250T mutant (unknown origin) at 0.45 uM relative to control
[26] = target: Glycogen synthase kinase-3 beta (Homo sapiens) (UniProt P49841); test: Inhibition of GSK3b (unknown origin) at 0.45 uM relative to control
[27] = target: Epidermal growth factor receptor (Homo sapiens) (UniProt P00533); test: Inhibition of EGFR (unknown origin) at 0.45 uM relative to control
[28] = target: Protein-tyrosine kinase 2-beta (Homo sapiens) (UniProt Q14289); test: Inhibition of PYK2 (unknown origin) at 0.45 uM relative to control
[29] = target: Receptor-type tyrosine-protein kinase FLT3 (Homo sapiens) (UniProt P36888); test: Inhibition of FLT3 (unknown origin) at 0.45 uM relative to control
[30] = target: Cyclin-dependent kinase 2 (Homo sapiens) (UniProt P24941); test: Inhibition of CDK2 (unknown origin) at 0.45 uM relative to control
[31] = target: AMP-activated protein kinase, AMPK (Homo sapiens) (UniProt P54646+O43741+P54619+Q9UGJ0+Q9Y478+Q13131+Q9UGI9); test: Inhibition of AMPK (unknown origin) at 0.078 uM relative to control
[32] = target: Mitogen-activated protein kinase kinase kinase 7 (Homo sapiens) (UniProt O43318); test: Inhibition of c-TAK1 (unknown origin) at 0.078 uM relative to control

Work on Cc1[nH]nc(C2CC2)c1-c1ccc2c(NC(=O)C3CC3)noc2c1 yielded an inhibition [1] of 9.3%, an inhibition [2] of 4.7% and an inhibition [3] of 2%. For the same molecule, the inhibition [4] was -2.3%, the inhibition [5] was 2.3% and the inhibition [6] was -0.3%. The inhibition [7] was 1.7%, the inhibition [8] was -7.3% and the inhibition [9] was 6.3%. For the same molecule, the inhibition [10] was -6% and the inhibition [11] was 20%.
In the case of Cc1n[nH]c(C)c1-c1ccc2c(NC(=O)c3ccc(N4CCN(C)CC4)cc3)n[nH]c2c1, the inhibition [12] is reported as 7%, the inhibition [13] is reported as -0.7% and the remaining at 0.5 h, 1 µM [14] is reported as 94%. It also gave an inhibition [15] of 1.7%, an inhibition [16] of 0.3% and an inhibition [17] of 2.7%. For the same molecule, the inhibition [18] was 11%, the inhibition [19] was 83.7% and the inhibition [20] was 59%. For the same molecule, the inhibition [21] was 4.3%, the inhibition [22] was 0.3% and the inhibition [23] was -2%. For the same molecule, the inhibition [24] was 7.7%, the inhibition [25] was 5% and the inhibition [26] was 1.3%. The inhibition [27] was -6%, the inhibition [28] was 4.7% and the inhibition [29] was 96.7%. The inhibition [30] was 6%.
With COC(=O)Nc1noc2cc(-c3c(-c4ccccn4)n[nH]c3C)ccc12 the inhibition [31] was 2.7% and the inhibition [32] was -3.3%.
